Entries after “also recorded” stand apart in the source; their conditions may differ. Residues, ends and D or L forms follow the SMILES beside them. *: point of attachment. Cbz = O=C(OCc1ccccc1)*
Legend:
GS [1] = assay: Glutamine-induced GS ubiquitylation, TUBE2 pulldown and immunoblot in MCF7 cells; type: cell-based; settings: MCF7 cells starved of glutamine 24 h; 40 μM NSC632839 or 20 μM PR-619 0.5 h, then 4 mM glutamine 2 h
Method: FIG. 1D depicts a Western blot. MCF7 cells, starved of glutamine for 24 h, were treated with MG132 (10 μM) and/or 40 μM NSC632839, 20 μM PR-619 for 0.5 h, followed by 4 mM glutamine treatment for 2 h. Total ubiquitylated proteins were purified using TUBE2-agarose, and then analyzed by IB with indicated antibodies. The relative ratio of ubiquitylated GS, GS(Ub)n to input GS, normalized to that of glutamine-treated cells in lane 2, are shown.

GS [2] = assay: Endogenous GS protein level by immunoblot in glutamine-treated MCF7 cells; type: cell-based; settings: MCF7 cells starved of glutamine 24 h; inhibitor 0.5 h, then 4 mM glutamine 10 h
Method: FIG. 1E depicts a Western blot. MCF7 cells, starved of glutamine for 24 h, were treated with NSC632839 for 0.5 h, followed by 4 mM glutamine treatment for 10 h. Cell extracts were analyzed by IB. The relative ratio of GS:Actin is shown.
FIG. 1F depicts a Western blot. MCF7 cells, starved of glutamine for 24 h, were treated with PR-619 for 0.5 h, followed by 4 mM glutamine treatment for 10 h. Cell extracts were analyzed by IB. The relative ratio of GS:Actin is shown.

mTORC1 = assay: Glutamine-induced serine phosphorylation of USP15^Flag and USP15-GS binding, IP in 293FT cells; type: cell-based
Method: FIG. 7B depicts a Western blot. 293FT cells, transfected with CT or USP15^Flag plasmid for 24 h, were grown in complete medium (C; 2 mM glutamine) or starved of glutamine for 24 h, then treated with Torin1 for 0.5 h, followed by 4 mM glutamine treatment for 1-2 h. Cell extracts were immunoprecipitated with anti-Flag. The relative ratios of phosphorylated serine USP15^Flag to total input USP15^Flag and endogenous GS interacted with USP15^Flag to input GS, normalized to that of untreated cells in lane 3, are shown.

GS [3] = assay: Glutamine-induced GS degradation in glutamine-starved H1299 cells with Torin1 and CB5083; type: cell-based
Method: FIG. 8A depicts a Western blot. Glutamine-starved H1299 cells, pre-treated with 250 nM Torin1 and 10 μM CB5083 for 0.5 h, were stimulated with 4 mM glutamine for 4 h. Cell extracts were analyzed by IB with the indicated antibodies.

USP15 [4] = assay: USP15 S229 phosphorylation by mass spectrometry in 293FT cells; type: cell-based; settings: 250 nM Torin1 16 h vs DMSO
Method: FIG. 10C depicts the phosphorylation peptide abundance calculated by phosphorylated peptides/(phosphorylated peptides+unmodified peptides)*100%. The abundance of S229 phosphorylation (P-S229) was calculated and represented as mean±SD; n=2 per group (p=0.01035 by t test).
To map the phosphorylation sites of USP15, which has 32 potential serine/threonine phosphorylation sites reported in ‘PhosphoSitePlus’ with the most prevalent serine 229, USP15^Flag was immune-purified from 293FT cells treated with DMSO or 250 nM Torin1 for 16 h and analyzed by MS analysis. […] Moreover, it represents an mTOR consensus sequence motif S/T-P (where S is serine; T is threonine; and P is proline) (FIG. 10B). […] Thus, the MS data were consistent with the other results, showing that USP15 was phosphorylated at serine in an mTORC1-dependent manner (FIG. 7B-7C).
MS analysis to identify the phosphorylation sites of USP15 was done at the Charles W. Gehrke proteomics center—University of Missouri, as described previously (Peterson T R, et al., Cell. 2009; 137(5):873-86. Epub 2009/05/19).

GS [5] = assay: Glutamine-induced GS degradation in H1299 cells co-treated with DUB inhibitor and MLN4924; type: cell-based; settings: 2 μM MLN4924 with NSC632839 or PR-619, 4 mM glutamine 8 h
Method: FIG. 1G depicts a Western blot. […] Cell extracts were analyzed by IB. The relative ratio of GS:Actin is shown.
FIG. 1H depicts a Western blot. […] Cell extracts were analyzed by IB. The relative ratio of GS:Actin is shown.

GS [6] = assay: Rescue of endogenous GS protein levels in USP15-KO 293FT cells, immunoblot; type: cell-based; settings: 2 μM MLN4924 or 2 mM MSO
Method: Cell extracts were analyzed by IB with the indicated antibodies.

GS [7] = assay: GS ubiquitylation in USP15-/- 293FT cells, TUBE2 pulldown; type: cell-based; settings: for accumulation of ubiquitylated GS under CB-5083 with co-treatment: pre-treated 2 μM MLN4924 or 2 mM MSO 0.5 h, then CB-5083 6 h
Excerpt: FIG. 3B depicts a Western blot. […] Total ubiquitylated proteins were purified using TUBE2-agarose.

GS [8] = assay: GS stability in mTOR-shRNA 293FT cells treated with MLN4924 or MSO; type: cell-based; settings: mTOR-shRNA TRIPZ_3 293FT cells, treated 14 h
Method: Cells were treated with different concentrations of MLN4924 for 14 h. Cell extracts were analyzed by IB with the indicated antibodies.
Cells were treated with different concentrations of MSO (G) for 14 h. Cell extracts were analyzed by IB with the indicated antibodies.

GSPT1 = assay: CC-885-induced GSPT1 ubiquitylation and degradation in USP15-/- 293FT cells with inhibitors
U266 cells = assay: Neo-substrate degradation in U266 cells, PR-619 with lenalidomide, immunoblot; type: cell-based; settings: PR-619 2 μM 1 h, lenalidomide 0, 2 and 10 μM 6 h
Method: FIG. 6L depicts a Western blot. […] Cell extracts were analyzed by SDS-PAGE and immunoblotting with indicated antibodies.

RPMI8226 cells = assay: RPMI8226 cell number/viability, PR-619 with lenalidomide, Trypan blue; type: cell-based; settings: PR-619 1 μM with lenalidomide, 4 days
Excerpt: FIG. 6G depicts total cell number after different treatment conditions. […] Error bars represent the SEM of triplicates (P<0.003 by t test).

GS [9] = settings: Jurkat cells, treated 4 h; cited from earlier work
[10] = tested on: cysteine protease DUBs, including USP15; settings: cited from earlier work
USP15 [11] = biological target: T1, USP15 (Homo sapiens, UniProt Q9Y4E8); assay: In vitro deubiquitylation assay with recombinant USP15 (rUSP15); settings: for activity of USP15 (deubiquitylation of polyubiquitylated GSPT1): 37° C., 0.5 h
T1 sequence (Q9Y4E8 1-981): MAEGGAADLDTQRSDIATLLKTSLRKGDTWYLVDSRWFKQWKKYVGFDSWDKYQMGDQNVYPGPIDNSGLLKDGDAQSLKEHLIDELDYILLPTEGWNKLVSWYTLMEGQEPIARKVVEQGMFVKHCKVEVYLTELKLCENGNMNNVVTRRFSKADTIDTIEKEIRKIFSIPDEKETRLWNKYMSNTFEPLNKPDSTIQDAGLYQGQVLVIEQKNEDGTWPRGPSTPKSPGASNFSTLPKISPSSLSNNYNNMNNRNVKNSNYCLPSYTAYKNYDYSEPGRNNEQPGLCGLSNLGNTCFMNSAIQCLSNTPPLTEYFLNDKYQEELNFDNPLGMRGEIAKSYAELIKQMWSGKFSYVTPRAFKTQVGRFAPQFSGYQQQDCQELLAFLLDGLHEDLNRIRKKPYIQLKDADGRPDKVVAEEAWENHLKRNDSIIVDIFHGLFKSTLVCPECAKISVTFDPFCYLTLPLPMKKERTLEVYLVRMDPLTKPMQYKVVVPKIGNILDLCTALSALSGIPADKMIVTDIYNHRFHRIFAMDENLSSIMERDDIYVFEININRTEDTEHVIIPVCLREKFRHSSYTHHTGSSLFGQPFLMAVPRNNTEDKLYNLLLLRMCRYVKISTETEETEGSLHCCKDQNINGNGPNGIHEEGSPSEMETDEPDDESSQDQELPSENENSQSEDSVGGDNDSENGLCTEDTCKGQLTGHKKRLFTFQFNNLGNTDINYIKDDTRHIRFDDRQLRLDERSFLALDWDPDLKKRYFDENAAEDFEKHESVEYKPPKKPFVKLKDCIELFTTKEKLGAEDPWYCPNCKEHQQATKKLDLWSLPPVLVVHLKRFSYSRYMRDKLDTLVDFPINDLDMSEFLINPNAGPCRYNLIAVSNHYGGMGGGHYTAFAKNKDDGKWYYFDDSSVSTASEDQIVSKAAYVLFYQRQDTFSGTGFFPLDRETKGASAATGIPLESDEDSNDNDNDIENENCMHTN
Excerpt: GSPT1(Ub)n: polyubiquitylated GSPT1.
SE and LE: short and long exposures. GSPT1(Ub)n: polyubiquitylated GSPT1.

LN229 cells = settings: no glutamine, MSO 2 mM, 5 days
Method: FIG. 3E depicts quantification of cell viability. […] An equal number of cells (1×10^6 cells in 10-cm plates) were then shifted to medium without glutamine in the presence (+) or absence (−) of the GS inhibitor MSO (2 mM) for 5 days, after which cell viability was quantified by staining with 0.4% Trypan blue. Cell viability was normalized to MSO-untreated control (−), which was set to 100%.

## Cc1ccc(/C=C2\CNC/C(=C\c3ccc(C)cc3)C2=O)cc1.Cl [NSC632839]
GS [1]
  glutamine-induced ubiquitylation of GS: promoted glutamine-induced ubiquitylation of GS
GS [2]
  protein levels of endogenous GS: decreased protein levels of endogenous GS

## CCC(=O)N1CCN(c2ccc(-n3c(=O)ccc4cnc5ccc(-c6cnc7ccccc7c6)cc5c43)cc2C(F)(F)F)CC1 [Torin1]
mTORC1; Torin1 0.5 h then 4 mM glutamine 1-2 h
  glutamine-induced phosphorylated serine USP15^Flag (P-Ser-USP15): substantially abolished
mTORC1; Torin1-treated
  binding of USP15 to GS: significant reduction in binding of USP15 to GS
GS [3]; glutamine-starved H1299 cells, 250 nM Torin1, 4 mM glutamine 4 h
  glutamine-induced GS degradation: promoted glutamine-induced GS degradation
USP15 [4]
  S229 phosphorylation of USP15: significantly decreased

## NS(=O)(=O)OC[C@@H]1C[C@@H](n2ccc3c(N[C@H]4CCc5ccccc54)ncnc32)C[C@@H]1O [MLN4924]
GS [5]
  effect on action of DUB inhibitors on glutamine-induced GS degradation: blocked the action of DUB inhibitors on glutamine-induced GS degradation
GS [6]
  downregulation of endogenous GS protein levels in USP15-KO cells: rescued
GS [7]
  accumulation of ubiquitylated GS under CB-5083 with co-treatment: but not in cells co-treated with MLN4924 and MSO
GS [8]
  effect of mTOR depletion by shRNA on GS stability: rescued the effect of mTOR depletion by shRNA on GS stability
GSPT1; USP15-/- 293FT cells, 2 μM MLN4924
  accumulation of polyubiquitylated GSPT1 (CC-885 with MG132 or CB-5083) in presence of MLN4924: completely abolished

## N#CSc1cc(SC#N)c(N)nc1N [PR-619]
GS [1]
  glutamine-induced ubiquitylation of GS: promoted glutamine-induced ubiquitylation of GS
GS [2]
  protein levels of endogenous GS: decreased protein levels of endogenous GS
U266 cells
  degradation of neo-substrates on co-treatment with lenalidomide: significantly promoted degradation of neo-substrates
RPMI8226 cells
  sensitization to lenalidomide (cell number/viability): sensitized resistant cell line RPMI8226 to lenalidomide
GS [9]
  GS ubiquitylation (SILAC ubiquitinome): decreased GS ubiquitylation; also recorded: decreased the ubiquitination of GS
[10]
  inhibition of DUB activity (previous study): can inhibit the activity of almost all cysteine protease DUBs, including USP15
USP15 [11]; PR-619 100 μM
  activity of USP15 (deubiquitylation of polyubiquitylated GSPT1): completely inhibited
USP15 [11]; PR-619 concentration range 1-20 μM
  USP15 activity: substantially suppressed USP15 activity in a dose-dependent manner

## CCN1C(=O)C=CC1=O [N-Ethylmaleimide]
USP15 [11]; NEM 20 mM (FIG. 5B legend)
  activity of USP15 (deubiquitylation of polyubiquitylated GSPT1): completely inhibited

## CS(=N)(=O)CC[C@H](N)C(=O)O (stereo partly drawn) [MSO, L-Methionine sulfoximine]
GS [6]
  downregulation of endogenous GS protein levels in USP15-KO cells: rescued
GS [7]
  accumulation of ubiquitylated GS under CB-5083 with co-treatment: but not in cells co-treated with MLN4924 and MSO
LN229 cells; LN229 cells with USP15 shRNAs
  cell viability, combined with USP15 depletion by shRNAs: synergistic inhibition of cell viability
LN229 cells; control LN229 cells
  cell viability: severe defect in cell viability
GS [8]
  effect of mTOR depletion by shRNA on GS stability: rescued the effect of mTOR depletion by shRNA on GS stability

## CC(C)C[C@@H](C=O)NC(=O)[C@H](CC(C)C)NC(=O)[C@H](CC(C)C)NC(=O)OCc1ccccc1 [MG132] (Cbz-Leu-Leu-Leu-aldehyde)
GS [9]
  GS ubiquitylation (SILAC ubiquitinome): increased ubiquitylation of GS
GSPT1; USP15-/- 293FT cells co-treated with CC-885 and inhibitor
  CC-885-induced degradation of GSPT1: blocked
GSPT1; USP15-/- 293FT cells, 10 μM CB-5083 or 20 μM MG132, 10 μM CC-885 3 h
  polyubiquitylated GSPT1 on co-treatment with CC-885: polyubiquitylated GSPT1 was accumulated

## Cc1cc2c(C(N)=O)cccc2n1-c1nc2c(c(NCc3ccccc3)n1)COCC2 [CB-5083]
GS [7]; 0.5 mM glutamine, CB-5083 6 h
  accumulation of ubiquitylated GS: accumulation of ubiquitylated GS was observed
GS [3]; H1299 cells, 10 μM CB5083 with 250 nM Torin1
  Torin-1-promoted glutamine-induced GS degradation with p97 inhibitor: blunted

— patent US20240245664A1, “METHODS OF USING USP15 INHIBITORS” (The Curators of the University of Missouri, priority 2021, published 2024)
